± gives the standard deviation of the averaged measurements.
Columns and labels:
SAPACITABINE [1] = compound: T1, CCCCCCCCCCCCCCCC(=O)Nc1ccn([C@@H]2O[C@H](CO)[C@@H](O)[C@@H]2C#N)c(=O)n1 [SAPACITABINE]; assay: surviving fraction relative to DMSO-only wells; higher = less growth inhibition; conditions: exposure time: 5 days
How it was run: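 Five days of continuous inhibitor exposure, at 0.5, 1, 5, 10, 50, 100, 500 and 1000 nM, followed a 24-hour period after log-phase tumour cell lines were seeded at 250–500 cells per well in 384-well plates. Surviving fraction was derived from CellTiter-Glo luminescence relative to the median of DMSO-only wells. Plates were read after 10 minutes at room temperature, and lines screened three times were kept only if replicate Pearson r >0.7 and median Z' >0.3.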

CANERTINIB = compound: C=CC(=O)Nc1cc2c(Nc3ccc(F)c(Cl)c3)ncnc2cc1OCCCN1CCOCC1 [CANERTINIB]; assay: area under dose-response curve of surviving fraction (unscaled, Aref=0) (surviving fraction x log10(nM)); higher = more resistant; conditions: exposure time: 5 days; dose range 0.5-1000 nM
How it was run: (§1)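 Three screens per tumour cell line were run in 384-well plates at eight inhibitor concentrations from 0.5 to 1000 nM over five days. Surviving fractions, from CellTiter-Glo luminescence normalised to DMSO-only wells, were fitted with 3-parameter logistic curves in the drc R package. The reported area under the curve is the unscaled activity area. It spans log10 dose, and Aref is 0.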

SNX-5422 = compound: CC1(C)CC(=O)c2c(C(F)(F)F)nn(-c3ccc(C(N)=O)c(N[C@H]4CC[C@H](OC(=O)CN)CC4)c3)c2C1 [SNX-5422]; assay: as above; conditions: exposure time: 5 days; dose range 0.5-1000 nM
How it was run: as §1

SAPACITABINE [2] = compound: T1, SAPACITABINE; assay: as above; conditions: exposure time: 5 days; dose range 0.5-1000 nM
How it was run: as §1

BI-2536 = compound: CC[C@@H]1C(=O)N(C)c2cnc(Nc3ccc(C(=O)NC4CCN(C)CC4)cc3OC)nc2N1C1CCCC1 [BI-2536]; assay: as above; conditions: exposure time: 5 days; dose range 0.5-1000 nM
How it was run: as §1

AFATINIB = compound: CN(C)C/C=C/C(=O)Nc1cc2c(Nc3ccc(F)c(Cl)c3)ncnc2cc1O[C@H]1CCOC1 [AFATINIB]; assay: as above; conditions: exposure time: 5 days; dose range 0.5-1000 nM
How it was run: as §1

MDV3100 = compound: CNC(=O)c1ccc(N2C(=S)N(c3ccc(C#N)c(C(F)(F)F)c3)C(=O)C2(C)C)cc1F [MDV3100]; assay: as above; conditions: exposure time: 5 days; dose range 0.5-1000 nM
How it was run: as §1

[3] = compound: Cn1cc(C2=Nc3cc(NC(=O)C(N)C4CCCCC4)cc4c3C2=CNNC4=O)cn1; assay: as above; conditions: exposure time: 5 days; dose range 0.5-1000 nM
How it was run: as §1

TIOGUANINE = compound: Nc1nc2[nH]cnc2c(=S)[nH]1 [TIOGUANINE]; assay: as above; conditions: exposure time: 5 days; dose range 0.5-1000 nM
How it was run: as §1

| Test System | surviving fraction (SAPACITABINE [1]; 0.5 nM) | surviving fraction (SAPACITABINE [1]; 1 nM) | surviving fraction (SAPACITABINE [1]; 5 nM) | surviving fraction (SAPACITABINE [1]; 10 nM) | surviving fraction (SAPACITABINE [1]; 50 nM) | surviving fraction (SAPACITABINE [1]; 100 nM) | surviving fraction (SAPACITABINE [1]; 500 nM) | surviving fraction (SAPACITABINE [1]; 1000 nM) | area under dose-response curve (CANERTINIB) | area under dose-response curve (SNX-5422) | area under dose-response curve (SAPACITABINE [2]) | area under dose-response curve (BI-2536) | area under dose-response curve (AFATINIB) | area under dose-response curve (MDV3100) | area under dose-response curve [3] | area under dose-response curve (TIOGUANINE) |
| --- | --- | --- | --- | --- | --- | --- | --- | --- | --- | --- | --- | --- | --- | --- | --- | --- |
| SNU475 LIVER | 0.888 ± 0.063 | 0.726 ± 0.057 | 0.83 ± 0.03 | 0.365 ± 0.03 | 0.962 ± 0.057 | 0.745 ± 0.025 | 0.573 ± 0.016 | 0.291 ± 0.015 | 2.91 | 2.29 | 2.23 | 1.41 | 2.99 | 2.8 | 3 | 3.14 |
| OS25HAL BONE | 0.868 ± 0.022 | 0.8983 ± 0.0076 | 0.834 ± 0.0066 | 0.855 ± 0.059 | 0.974 ± 0.036 | 0.925 ± 0.015 | 0.293 ± 0.019 | 0.15 ± 0.014 | 3.13 | 2.27 | 2.79 | 0.792 | 3.28 | 3.23 | 2.71 | 3.21 |
| SG43 HEADNECK | 1.04 ± 0.091 | 1.28 ± 0.23 | 1.08 ± 0.17 | 1.11 ± 0.29 | 0.867 ± 0.14 | 1.04 ± 0.072 | 0.933 ± 0.13 | 1.05 ± 0.04 | 1.92 | 1.7 | 3.5 | 1.83 | 1.3 | 3.06 | 3.31 | 2.96 |
| PCI30 HEADNECK | 0.899 ± 0.053 | 0.916 ± 0.046 | 0.946 ± 0.039 | 0.984 ± 0.051 | 0.965 ± 0.027 | 0.801 ± 0.023 | 0.555 ± 0.028 | 1.05 ± 0.13 | 2.01 | 2.2 | 2.94 | 1.08 | 1.61 | 3.18 | 2.65 | 3.19 |
| SYO1 SYNOVIAL | 0.83 ± 0.07 | 0.689 ± 0.019 | 0.737 ± 0.016 | 0.343 ± 0.029 | 0.48 ± 0.022 | 0.269 ± 0.0028 | 0.0989 ± 0.0067 | 0.0679 ± 0.0022 | 2.48 | 1.47 | 1.23 | 0.562 | 2.96 | 2.45 | 1.84 | 2.43 |

— the supplement of paper PMC6045584
